Results as given in patent US11124536B2, “Uridine nucleoside derivatives, compositions and methods of use” (Tufts University, priority 2013, dated 2021).
Entries after “also recorded” stand apart in the source; their conditions may differ.

Columns and labels:
PSAPP mice [1] = experiment: Contextual fear conditioning test (freezing %); assay type: in vivo
Description: On day one, animals were trained in a fear conditioning apparatus for a total of 7 minutes with a two-pairing paradigm of cue and mild foot shock (a 30-s acoustic-conditioned stimulus, 80 dB; a 2-s shock stimulus, 0.5 mA). To evaluate contextual fear learning, the animals were returned to the training context 24 hours post-training, and freezing behavior was scored for 5 minutes. Freezing behavior was monitored by MotorMonitor (Hamilton Kinder) and scored every 5 seconds.
This represents a decrease in the cognitive impairment observed in the untreated mice.

[2] = Cmax at the effective dose; conditions: mouse, in vivo; dose 10 ug/kg
[3] = Half-life in human whole blood; assay type: in vitro ADME
PSAPP mice [4] = experiment: Multiplex analysis of circulating plasma cytokine levels; assay type: in vivo
Description: Inflammatory cytokines were assessed in mouse plasma of both wild type and PS1/APP mice (Alzheimer's mouse model) and the impact of intraperitoneal delivery of the diphosphate derivative of compound 5 on circulating cytokines was assessed. […] 24 hours following the final injection, plasma was collected. Wildtype, age matched littermates and PSAPP mice (>6 months of age) were treated either with vehicle (phosphate buffered saline) or vehicle containing compound.
As part of the study described in Example 16, the levels of numerous cytokines in plasma of mice treated with vehicle or compound 5 were also evaluated. As described in Example 16, treatment was initiated when the mice were approximately 3 months old. PSAPP mice were treated for 100 days with daily injections of 10 μg/kg of compound 5 or vehicle. Following treatment and the fear conditioning task experiment, plasma was taken for multiplex cytokine analysis of circulating cytokine levels in vehicle-treated versus compound-treated PSAPP mice. Cytokine levels are assayed using a multi-plex system where beads are labelled with capture antibody specific for each analyte tested. Each bead set is coupled to a specific capture antibody and is distinguishable from beads coupled to a different capture antibody. Thus, the levels of each analyte can be evaluated and distinguished. […] In FIGS. 17-20, compound 5 is indicated along the x-axis as “compound”.

Oral bioavailability = conditions: in vivo
human THP-1 cells = experiment: Cytokine release from THP-1 cells into culture medium (multiplex cytokine analysis); assay type: cell-based; conditions: 24 hours
Description: THP-1 cells, a human cell line derived from monocytes, were treated in vitro with vehicle, the P2Y6 receptor antagonist MRS 2578, or compound 5, singly or in combination. THP-1 cells were seeded in 24 well plates at a density of 4×10^5 cells/well in culture medium for 24 hours. Thereafter, vehicle, compound 5, or MRS 2578 (singly or in combination) were added to the cultures for 24 hours. Subsequently the culture medium was aspirated and subjected to multiplex cytokine analysis. Data are presented as means+/−sem. MRS 2578 has a molecular weight of about 472 and is also described using CAS number 711019-86-2.

PSAPP mice [5] = experiment: Postmortem immunohistochemistry of amyloid beta plaque load in cortex and hippocampus; assay type: in vivo
Description: Mice were perfused transcardially with 4% paraformaldehyde and 40 μm Coronal sections were collected. Sections were sequentially incubated in 0.3% H2O2 for 10 minutes, blocking solution for 2 hrs, blocking solution containing the primary antibody (rabbit anti-beta1-42; rabbit anti-beta1-40, from Chemicon International and rat anti-CD45) for 48 hours at 4° C., and blocking solution containing biotinylated antibody or fluorescently-labeled antibody for 2 hours at room temperature. Sections were visualized in a bright field microscope or a confocal microscope, and the optical density was obtained using MetaMorph software.
To generate these graphs showing plaque load, mice were euthanized, brain sections cut and antibodies directed against Aβ 42 were used to disclose Aβ plaques. Images were acquired digitally and an algorithm was applied to threshold the image so that plaques were isolated from the background. The algorithm then calculated the percent area of the field of view occupied by the plaques.
Brain samples were collected for Abeta analysis with immunostaining. Brains samples were collected after transcardial perfusion with phosphate buffer and 4% paraformaldehyde. Floating brain sections (40 micron) were collected using a microtome. Immunostaining for Aβ40 and Aβ42 were performed according to previously established protocol. Images with DAB staining were collected with brightfield microscopy and analyzed with ImageJ Macro. All data analysis and statistics were performed in GraphPad Prism 6.0.

O=C1C=CC([C@@H]2O[C@H](CO)C(O)C2O)C(=O)N1Cc1noc2ccccc12 (stereo partly shown) [compound 5]
freezing time (contextual fear memory) vs vehicle (PSAPP mice [1]; Example 16: 10 μg/kg i.p. daily 100 days from approx. 3 months old (pre-symptomatic), FIG. 15): statistically significant increase
freezing time (contextual fear memory) vs vehicle (PSAPP mice [1]; Example 18: 10 μg/kg i.p. daily 100 days from approx. 3 months old, FIG. 22C, p<0.02): statistically significant increase
Cmax [2]: 13 nM
half-life [3]: 16.4 h
plasma levels of IL-4, IL-10, and IL-12 (IL-12(p70)) (PSAPP mice [4]; Example 17: 10 μg/kg daily 100 days from approx. 3 months old, FIG. 17): statistically significant reduction
plasma level of p40 subunit alone (IL-12(p40)) (PSAPP mice [4]; Example 17: 10 μg/kg daily 100 days, FIG. 17): does not reflect a change
average plasma levels of IFN-r, IL-1β, IL-2, IL-3, IL-5, IL-6, IL-7, IL-9, IL-13, IL-17, LIF, MIP-1α, and MIP-1β (PSAPP mice [4]; Example 17: 10 μg/kg daily 100 days, FIGS. 17-20): reduced
levels of M-CSF, MIP-2, Eotaxin, GM-CSF, G-CSF, LIX, MCP-1, IL-1α and IP-10 (PSAPP mice [4]; Example 17: 10 μg/kg daily 100 days, FIGS. 18-20): no or substantially no change
plasma levels of IL-12 (IL-12(p70)), IL-13, IL-17, IL-10, IL-4, MIP-1a, MIP-1b, and IL-2 (PSAPP mice [4]; Example 18: 10 μg/kg i.p. daily 100 days from approx. 3 months old, FIG. 21): statistically significant reduction
plasma levels of IL-12 (IL-12(p70)), IL-13, IL-17, IL-10, MIP-1a, MIP-1b, and TNFα (PSAPP mice [4]; Example 19: 10 μg/kg i.p. daily 7 days from approx. 6 months old (symptomatic), FIG. 23): statistically significant reduction
bioavailability (Oral bioavailability): 72.2%
release of cytokines from THP-1 cells (human THP-1 cells; 10 nM): reduced
release of IL-7 from human THP-1 cells (human THP-1 cells; compound 5 10 nM alone, FIG. 26): decreased
size distribution of remaining plaques (PSAPP mice [5]; 10 μg/kg i.p. once per day for 7 days, PS1/APP mice 26 weeks): significantly reduced
Aβ40 plaque burden (PSAPP mice [5]; 10 μg/kg i.p. once per day for 7 days, PS1/APP mice 26 weeks, cortex, FIG. 13A): significantly reduced
Aβ42 plaque burden (PSAPP mice [5]; 10 μg/kg i.p. once per day for 7 days, PS1/APP mice 26 weeks, cortex, FIG. 13B): significantly reduced
plaque burden vs vehicle (PSAPP mice [5]; Example 16: 10 μg/kg i.p. daily 100 days from approx. 3 months old, FIG. 16): decrease; also recorded: reduced
amyloid beta accumulation (plaque load) in the cortex (PSAPP mice [5]; Example 18: 10 μg/kg i.p. daily 100 days, FIG. 22A, p<0.01): decreased
amyloid beta accumulation (plaque load) in the hippocampus (PSAPP mice [5]; Example 18: 10 μg/kg i.p. daily 100 days, FIG. 22B, p<0.02): decreased
amyloid beta accumulation in the hippocampus (using Aβ42) (PSAPP mice [5]; Example 19: 10 μg/kg i.p. daily 7 days from approx. 6 months old, FIG. 24A lower panel): decreased
amyloid beta accumulation in the cortex (using Aβ40) (PSAPP mice [5]; Example 19: 10 μg/kg i.p. daily 7 days from approx. 6 months old, FIG. 24A upper panel): decreased
plaque size (PSAPP mice [5]; Example 19: 10 μg/kg i.p. daily 7 days, FIG. 24B): decrease
